Measurements taken from US6706757B2, “Chroman derivatives as 5-hydroxytryptamine-6 ligands” (Wyeth, priority 2001, dated 2004).
Where a name gives a salt, the structure may show the parent alone.

What follows are compounds tested against T1, human cloned 5-HT6 receptors (Homo sapiens, UniProt P50406) (assay: 5-HT6 binding affinity, [3H]-LSD displacement on membranes of Hela cells expressing human cloned 5-HT6 receptors). Settings: [3H]-LSD 3.0 nM, Hela cell membranes, 120 min at room temperature.
T1 construct: expressed in transfected cells; host or cells: HeLa cells (membrane preparation)
T1 sequence (P50406 whole entry): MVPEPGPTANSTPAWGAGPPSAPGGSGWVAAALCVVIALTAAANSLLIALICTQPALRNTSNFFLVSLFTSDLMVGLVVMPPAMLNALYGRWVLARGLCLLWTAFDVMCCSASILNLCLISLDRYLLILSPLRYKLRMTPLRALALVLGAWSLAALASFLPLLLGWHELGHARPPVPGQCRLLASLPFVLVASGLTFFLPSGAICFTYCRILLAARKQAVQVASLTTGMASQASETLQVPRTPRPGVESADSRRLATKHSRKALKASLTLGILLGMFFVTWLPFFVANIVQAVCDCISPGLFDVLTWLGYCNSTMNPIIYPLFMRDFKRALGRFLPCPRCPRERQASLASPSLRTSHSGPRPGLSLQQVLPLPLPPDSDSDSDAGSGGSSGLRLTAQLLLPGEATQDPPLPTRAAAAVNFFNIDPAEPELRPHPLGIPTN
Protocol: The affinity of test compounds for the serotonin 5-HT6 receptor is evaluated in the following manner. Cultured Hela cells expressing human cloned 5-HT6 receptors are harvested and centrifuged at low speed (1,000×g) for 10.0 min to remove the culture media. The harvested cells are suspended in half volume of fresh physiological phosphate buffered saline solution and recentrifuged at the same speed. This operation is repeated. The collected cells are then homogenized in ten volumes of 50 mM Tris.HCl (pH 7.4) and 0.5 mM EDTA. The homogenate is centrifuged at 40,000×g for 30.0 min and the precipitate is collected. The obtained pellet is resuspended in 10 volumes of Tris.HCl buffer and recentrifuged at the same speed. The final pellet is suspended in a small volume of Tris.HCl buffer and the tissue protein content is determined in aliquots of 10-25 μl volumes. Bovine Serum Albumin is used as the standard in the protein determination according to the method described in Lowry et al., J. Biol. Chem., 193:265 (1951). The volume of the suspended cell membranes is adjusted to give a tissue protein concentration of 1.0 mg/ml of suspension. The prepared membrane suspension (10 times concentrated) is aliquoted in 1.0 ml volumes and stored at −70° C. until used in subsequent binding experiments.
Binding experiments are performed in a 96 well microtiter plate format, in a total volume of 200 μl. […] The test compounds are added in 20.0 μl volume.
The reaction is allowed to proceed in the dark for 120 min at room temperature, at which time, the bound ligand-receptor complex is filtered off on a 96 well unifilter with a Packard Filtermate® 196 Harvester. The bound complex caught on the filter disk is allowed to air dry and the radioactivity is measured in a Packard TopCount® equipped with six photomultiplier detectors, after the addition of 40.0 μl Microscint®-20 scintillant to each shallow well. The unifilter plate is heat-sealed and counted in a PackardTopCount® with a tritium efficiency of 31.0%.
Binding in the presence of varying concentrations of test compound is expressed as a percentage of specific binding in the absence of test compound. The results are plotted as log % bound versus log concentration of test compound. […] A linear regression line of data points is plotted, from which the IC50 value is determined and the Ki value is determined based upon the following equation: […]
where L is the concentration of the radioactive ligand used and KD is the dissociation constant of the ligand for the receptor, both expressed in nM.

First: O=S(=O)(Nc1ccc2c(c1)OC(CNCCCO)CC2)c1ccccc1 (centres unmarked) [Example 5, N-{2-[(3-Hydroxypropylamino)-methyl]chroman-7-yl}benzenesulfonamide Hemifumarate salt]
Second: O=S(=O)(Nc1ccc2c(c1)OC(CNCCCO)CC2)c1ccc(F)cc1 (centres unmarked) [Example 30, 4-fluoro-N-(2-{[(3-hydroxypropyl)amino]methyl}-3,4-dihydro-2H-chromen-7-yl)benzenesulfonamide]
The Ki of the first is 9.8-fold lower: 5 nM for the first, 49 nM for the second. The first binds more tightly here.

Compared with `COc1cccc(CNCC2CCc3ccc(NS(=O)(=O)c4ccccc4)cc3O2)c1` (centres unmarked) [Example 6, N-(2-{[(3-methoxybenzyl)amino]methyl}-3,4-dihydro-2H-chromen-7-yl)benzenesulfonamide], `O=S(=O)(Nc1ccc2c(c1)OC(CNCc1ccccc1)CC2)c1ccccc1` (centres unmarked) [Example 8, N-{2-[(benzylamino)methyl]-3,4-dihydro-2H-chromen-7-yl}benzenesulfonamide] is 2-fold lower in Ki: 4 nM for the first, 2 nM for the second. The second binds more tightly here.

`CCCCOCCCNCC1CCc2ccc(NS(=O)(=O)c3ccccc3)cc2O1` (centres unmarked) [Example 7, N-(2-{[(3-butoxypropyl)amino]methyl}-3,4-dihydro-2H-chromen-7-yl)benzenesulfonamide] and `O=S(=O)(Nc1ccc2c(c1)OC(CNCCCOc1ccccc1)CC2)c1ccccc1` (centres unmarked) [Example 9, N-(2-{[(3-phenoxypropyl)amino]methyl}-3,4-dihydro-2H-chromen-7-yl)benzenesulfonamide] are the same in Ki: 2 nM for the first, 2 nM for the second.

First: C[C@@H](NCC1CCc2ccc(NS(=O)(=O)c3ccccc3)cc2O1)c1ccccc1 (stereo partly drawn) [Example 10, N-[2-({[(1R)-1-phenylethyl]amino}methyl)-3,4-dihydro-2H-chromen-7-yl]benzenesulfonamide]
Second: C[C@H](NCC1CCc2ccc(NS(=O)(=O)c3ccccc3)cc2O1)c1ccccc1 (stereo partly drawn) [Example 14, N-[2-({[(1S)-1-phenylethyl]amino}methyl)-3,4-dihydro-2H-chromen-7-yl]benzenesulfonamide]
The Ki of the first is 10-fold lower: 1 nM for the first, 10 nM for the second.

Compared with `O=S(=O)(Nc1ccc2c(c1)OC(CNCc1ccc3c(c1)OCO3)CC2)c1ccccc1` (centres unmarked) [Example 11, N-(2-{[(1,3-benzodioxol-5-ylmethyl)amino]methyl}-3,4-dihydro-2H-chromen-7-yl)benzenesulfonamide], `O=S(=O)(Nc1ccc2c(c1)OC(CNCc1ccncc1)CC2)c1ccccc1` (centres unmarked) [Example 15, N-(2-{[(pyridin-4-ylmethyl)amino]methyl}-3,4-dihydro-2H-chromen-7-yl)benzenesulfonamide] is 8.5-fold higher in Ki: 2 nM for the first, 17 nM for the second. The first binds more tightly here.

`O=S(=O)(Nc1ccc2c(c1)OC(CNCc1cccnc1)CC2)c1ccccc1` (centres unmarked) [Example 12, N-(2-{[(pyridin-3-ylmethyl)amino]methyl}-3,4-dihydro-2H-chromen-7-yl)benzenesulfonamide] and `CC(CCc1ccccc1)NCC1CCc2ccc(NS(=O)(=O)c3ccccc3)cc2O1` (centres unmarked) [Example 20, N-(2-{[(1-methyl-3-phenylpropyl)amino]methyl}-3,4-dihydro-2H-chromen-7-yl)benzenesulfonamide] are within 1.5-fold of each other in Ki: 5 nM for the first, 6 nM for the second.

`O=S(=O)(Nc1ccc2c(c1)OC(CNC1CCc3ccccc31)CC2)c1ccccc1` (centres unmarked) [Example 13, N-{2-[(2,3-dihydro-1H-inden-1-ylamino)methyl]-3,4-dihydro-2H-chromen-7-yl}benzenesulfonamide] and `O=S(=O)(Nc1ccc2c(c1)OC(CN[C@@H](CO)c1ccccc1)CC2)c1ccccc1` (stereo partly drawn) [Example 16, N-[2-({[(1R)-2-hydroxy-1-phenylethyl]amino}methyl)-3,4-dihydro-2H-chromen-7-yl]benzenesulfonamide] are within 1.5-fold of each other in Ki: 7 nM for the first, 5 nM for the second.

First: O=S(=O)(Nc1ccc2c(c1)OC(CNC(Cc1ccccc1)c1ccccc1)CC2)c1ccccc1 (centres unmarked) [Example 17, N-(2-{[(1,2-diphenylethyl)amino]methyl}-3,4-dihydro-2H-chromen-7-yl)benzenesulfonamide]
Second: CC(C)NCC1CCc2ccc(NS(=O)(=O)c3ccccc3)cc2O1 (centres unmarked) [Example 19, N-{2-[(isopropylamino)methyl]-3,4-dihydro-2H-chromen-7-yl}benzenesulfonamide]
The Ki of the first is 5.2-fold higher: 84 nM for the first, 16 nM for the second. The second binds more tightly here.

First: CC(C)(CO)NCC1CCc2ccc(NS(=O)(=O)c3ccccc3)cc2O1 (centres unmarked) [Example 18, N-(2-{[(2-hydroxy-1,1-dimethylethyl)amino]methyl}-3,4-dihydro-2H-chromen-7-yl)benzenesulfonamide]
Second: CC(C)C[C@H](CO)NCC1CCc2ccc(NS(=O)(=O)c3ccccc3)cc2O1 (stereo partly drawn) [Example 22, N-[2-({[(1R)-1-(hydroxymethyl)-3-methylbutyl]amino}methyl)-3,4-dihydro-2H-chromen-7yl]benzenesulfonamide]
The Ki of the first is 14-fold higher: 41 nM for the first, 3 nM for the second. The second binds more tightly here.

`CC(C)CCCC(C)NCC1CCc2ccc(NS(=O)(=O)c3ccccc3)cc2O1` (centres unmarked) [Example 21, N-(2-{[(1,5-dimethylhexyl)amino]methyl}-3,4-dihydro-2H-chromen-7-yl)benzenesulfonamide] and `C[C@@H](NCC1CCc2ccc(NS(=O)(=O)c3ccccc3)cc2O1)C1CCCCC1` (stereo partly drawn) [Example 27, N-[2-({[(1R)-1-cyclohexylethyl]amino}methyl)-3,4-dihydro-2H-chromen-7-yl]benzenesulfonamide] are within 1.5-fold of each other in Ki: 8 nM for the first, 7 nM for the second.

Going from `O=S(=O)(Nc1ccc2c(c1)OC(CN1CCCCC1CCO)CC2)c1ccccc1` (centres unmarked) [Example 23, N-(2-{[2-(2-hydroxyethyl)piperidin-1-yl]methyl}-3,4-dihydro-2H-chromen-7-yl)benzenesulfonamide] to `CC1CCCC(C)N1CC1CCc2ccc(NS(=O)(=O)c3ccccc3)cc2O1` (centres unmarked) [Example 24, N-{2-[(2,6-dimethylpiperidin-1-yl)methyl]-3,4-dihydro-2H-chromen-7-yl}benzenesulfonamide], the Ki rises from 35 nM to 72 nM (2.1-fold). The first binds more tightly here.

First: O=S(=O)(Nc1ccc2c(c1)OC(CN1CCOCC1)CC2)c1ccccc1 (centres unmarked) [Example 25, N-[2-(morpholin-4-ylmethyl)-3,4-dihydro-2H-chromen-7-yl]benzenesulfonamide]
Second: O=S(=O)(Nc1ccc2c(c1)OC(CN1CCSCC1)CC2)c1ccccc1 (centres unmarked) [Example 26, N-[2-(thiomorpholin-4-ylmethyl)-3,4-dihydro-2H-chromen-7-yl]benzenesulfonamide]
The Ki of the first is 2.9-fold higher: 26 nM for the first, 9 nM for the second. The second binds more tightly here.

Compared with `O=S(=O)(Nc1ccc2c(c1)OC(CNCCCO)CC2)c1ccc2ccccc2c1` (centres unmarked) [Example 28, N-(2-{[(3-Hydroxypropyl)amino]methyl}-3,4-dihydro-2H-chromen-7-yl)naphthalene-2-sulfonamide], `COc1ccc(S(=O)(=O)Nc2ccc3c(c2)OC(CNCCCO)CC3)cc1` (centres unmarked) [Example 29, N-(2-{[(3-hydroxypropyl)amino]methyl}-3,4-dihydro-2H-chromen-7-yl)-4-methoxybenzenesulfonamide] is 7.8-fold higher in Ki: 5 nM for the first, 39 nM for the second. The first binds more tightly here.

Compared with `O=S(=O)(Nc1ccc2c(c1)OC(CNCCCO)CC2)c1ccc(Cl)cc1` (centres unmarked) [Example 31, 4-chloro-N-(2-{[(3-hydroxypropyl)amino]methyl}-3,4-dihydro-2H-chromen-7-yl)benzenesulfonamide], `C[C@@H](NCC1CCc2ccc(NS(=O)(=O)c3ccc(Br)s3)cc2O1)c1ccccc1` (stereo partly drawn) [Example 34, 5-bromo-N-[2-({[(1R)-1-phenylethyl]amino}methyl)-3,4-dihydro-2H-chromen-7-yl]-2-thiophenesulfonamide] is 2.2-fold lower in Ki: 11 nM for the first, 5 nM for the second.

Going from `C[C@@H](NCC1CCc2ccc(NS(=O)(=O)c3cccc4nonc34)cc2O1)c1ccccc1` (stereo partly drawn) [Example 32, N-[2-({[(1R)-1-Phenylethyl]amino}methyl)-3,4-dihydro-2H-chromen-7-yl]-2,1,3-benzoxadiazole-4-sulfonamide] to `Cc1c(S(=O)(=O)Nc2ccc3c(c2)OC(CN[C@H](C)c2ccccc2)CC3)sc2ccc(Cl)cc12` (stereo partly drawn) [Example 36, 5-chloro-3-methyl-N-[2-({[(1R)-1-phenylethyl]amino}methyl)-3,4-dihydro-2H-chromen-7-yl]-1-benzothiophene-2-sulfonamide], the Ki rises from 5 nM to 45 nM (9-fold).

Compared with `C[C@@H](NCC1CCc2ccc(NS(=O)(=O)c3c(Cl)nc4sccn34)cc2O1)c1ccccc1` (stereo partly drawn) [Example 33, 6-chloro-N-[2-({[(1R)-1-phenylethyl]amino}methyl)-3,4-dihydro-2H-chromen-7-yl]imidazo[2,1-b][1,3]thiazole-5-sulfonamide], `CC(=O)Nc1nc(C)c(S(=O)(=O)Nc2ccc3c(c2)OC(CN[C@H](C)c2ccccc2)CC3)s1` (stereo partly drawn) [Example 35, N-[4-methyl-5-({[2-({[(1R)-1-phenylethyl]amino}methyl)-3,4-dihydro-2H-chromen-7-yl]amino}sulfonyl)-1,3-thiazol-2-yl]acetamide] is 2.3-fold higher in Ki: 3 nM for the first, 7 nM for the second.
